Measurements reported in patent publication US20210137857A1, “A COMPOSITION FOR TREATMENT OR PREVENTION OF A NEURODEGENERATIVE DISEASE” (NEILOS S.R.L., priority 2017, published 2021).

Legend:
[1] = human, in vivo; cited from earlier work
[2] = Solubility tests on the test compounds; assay type: physicochemical

For `Nc1c2c(nc3ccccc13)CCCC2` [Tacrine], the “patients treated with increase in serum transaminases” value [1] is given as “more than 50%” and the “patients with abdominal cramps, anorexia, nausea, vomiting and diarrhoea” value [1] is given as “more than a third of patients”.

With Amyloid β peptide 1-42 [Peptide β1-42] the “Solubility test RESULT” value [2] was “POSITIVE”.
